Tests used:
[1] = Physical and processing (bulk) properties of crystalline forms; format: physicochemical; details: TABLE II, crystalline forms of aztreonam
[2] = Intrinsic dissolution rate of crystalline forms; format: physicochemical; details: TABLE II, crystalline forms of aztreonam
[3] = as described for Ser. No. 282,636; cited from earlier work
[4] = compared with α-form or simple salts of the compound; storage prior to conversion to β-form

SMILES | Density [1] | Flowability [1] | Surface Area [1] | Intrinsic Dissolution Rate [2] | Hygroscopicity (background, earlier application) [3] | Shelf life [4]
C[C@H]1[C@H](NC(=O)/C(=N\OC(C)(C)C(=O)O)c2csc(N)n2)C(=O)N1S(=O)(=O)O [α-Form, [3S-[3α(Z)4β]]-3-[[(2-amino-4-thiazolyl)[(1-carboxy-1-methylethoxy)imino]acetyl]amino]-4-methyl-2-oxo-1-azetidinesulfonic acid] | low | poor | high | slow | – | –
C[C@H]1[C@H](NC(=O)/C(=N\OC(C)(C)C(=O)O)c2csc(N)n2)C(=O)N1S(=O)(=O)O [β-Form, [3S-[3α(Z),4β]]-3-[[(2-amino-4-thiazolyl)-[(1-carboxy-1-methylethoxy)imino]acetyl]amino]-4-methyl-2-oxo-1-azetidinesulfonic acid] | high | good | low | fast | substantially non-hygroscopic | –
C[C@H]1[C@H](NC(=O)/C(=N\OC(C)(C)C(=O)O)c2csc(N)n2)C(=O)N1S(=O)(=O)O [γ-Form] | low | poor | high | fast | – | –
C[C@H]1[C@H](NC(=O)/C(=N\OC(C)(C)C(=O)O)c2csc(N)n2)C(=O)N1S(=O)(=O)O [δ-Form, [3S-[3α(Z),4β]]-3-[[(2-amino-4-thiazolyl)[(1-carboxy-1-methylethoxy)imino]acetyl]amino]-4-methyl-2-oxo-1-azetidinesulfonic acid] | high | good | low | fast | – | greater than that of the α-form, or for that matter simple salts of the compound

Reference: US4826973A, “Delta form of aztreonam and preparation thereof” (priority 1985, dated 1989)
